The values below come from patent US10092546B2, “Imidazole derivatives” (Hoffman-La Roche Inc., priority 2015, dated 2018).

The experiment concerns the target T1, human EAAT3 (Homo sapiens, UniProt P43005).
T1 construct: expressed in transfected cells
T1 sequence (P43005 1-524): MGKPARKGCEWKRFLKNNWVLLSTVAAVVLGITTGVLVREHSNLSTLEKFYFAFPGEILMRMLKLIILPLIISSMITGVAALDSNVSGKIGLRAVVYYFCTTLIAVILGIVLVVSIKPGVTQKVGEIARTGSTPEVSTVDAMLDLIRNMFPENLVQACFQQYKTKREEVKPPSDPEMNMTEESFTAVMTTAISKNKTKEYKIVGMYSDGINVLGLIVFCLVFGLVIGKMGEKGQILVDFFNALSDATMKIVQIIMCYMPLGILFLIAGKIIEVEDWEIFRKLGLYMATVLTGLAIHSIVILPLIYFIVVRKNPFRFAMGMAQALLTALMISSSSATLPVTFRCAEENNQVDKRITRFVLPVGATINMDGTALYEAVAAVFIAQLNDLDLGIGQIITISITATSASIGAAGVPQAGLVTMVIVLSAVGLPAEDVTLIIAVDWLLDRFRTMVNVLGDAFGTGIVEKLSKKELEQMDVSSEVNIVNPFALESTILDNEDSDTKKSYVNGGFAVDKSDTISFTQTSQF
Put plainly: FLIPR Membrane Potential (FMP) assay, antagonist potency at human EAAT3. Type of experiment: cell-based. The settings on record: HEK-293 cells stably expressing human EAAT3; L-glutamate as agonist at EC80; antagonist applied 15 min before; Kb by Cheng-Prusoff from IC50. The procedure: The FLIPR Membrane Potential (FMP) Assay
HEK-293 cells stably expressing human EAAT3 were seeded at 55 000 cells/well in growth medium (DMEM glutamate free (Invitrogen 11960-044), 1% Pen Strep (10 ml/l GIBCO BRL No 15140-023), 10% FCS non dialysed heat inactivated, 5 mg/l puromycin) in poly-D-lysine treated 96-well black microtiter plates with clear-bottom. After 24 h, the growth medium was removed and 100 μl/well of Krebs buffer (140 mM NaCl, 4.7 mM KCl, 2.5 mM CaCl2, 1.2 mM MgCl2, 11 mM HEPES, 10 mM D-glucose, pH=7.4) added. The cells were then loaded by adding 100 μl/well FMP assay dye (FLIPR Membrane Potential assay reagent, Molecular Devices). The 96-well plates were then incubated at 37° C. for 1 h. The depolarization of the cells will cause more dye to enter in the cells, where it will bind to intracellular proteins and lipids and cause an increase in the fluorescence signal. Antagonist potency at human EAAT3 was determined by using L-glutamate as agonist at a concentration which gives 80% of the maximum response. The antagonists were applied 15 min before the application of the agonist L-glutamate. The assays were performed at room temperature and measurements done by using a Fluorometric Imaging Plate Reader (FLIPR, Molecular Devices) and filter #2. Responses were measured as peak increase in fluorescence minus basal (i.e. fluorescence without addition of L-glutamate). Kb was determined using the Cheng-Prusoff equation Kb=IC50/[1+(A/EC50)], where IC50 is the concentration of the antagonist producing 50% inhibition, A is the concentration of the agonist against which the IC50 is being determined (at EC80) and EC50 is the concentration of the agonist producing 50% […].
In the case of `CC(C)c1nccn1-c1cc(C(=O)NC2(C)CCS(=O)(=O)C2)cc(-c2ccc(F)cc2)n1` (racemic) [Example 38, (RS)-2-(4-Fluorophenyl)-N-(3-methyl-1,1-dioxothiolan-3-yl)-6-(2-propan-2-ylimidazol-1-yl)-pyridine-4-carboxamide], the Kb (as a rule, the affinity of an antagonist, worked out from how it opposes an agonist) is 140 nM. `CC(C)c1nccn1-c1cc(C(=O)NC(C)(C)C)cc(-c2ccc(Cl)cc2)n1` [Example 1, N-tert-Butyl-2-(4-chlorophenyl)-6-(2-propan-2-yl-imidazol-1-yl)-pyridine-4-carboxamide]: the Kb stood at 140 nM. With `CC(C)c1nccn1-c1cc(C(=O)NC(C)(C)C)cc(-c2ccc(C(F)(F)F)cc2)n1` [Example 3, N-tert-Butyl-2-(2-propan-2-yl-imidazol-1-yl)-6-[4-(trifluoromethyl)-phenyl]-pyridine-4-carboxamide], the Kb came out at 460 nM. In turn, `CC(C)(C)NC(=O)c1cc(-c2ccc(F)cc2)nc(-n2ccnc2C2CC2)c1` [Example 4, N-tert-Butyl-2-(2-cyclopropyl-imidazol-1-yl)-6-(4-fluorophenyl)-pyridine-4-carboxamide] gave a Kb of 160 nM. This Kb lies about 2.9-fold lower than the previous one. The compound `CC(C)(C)NC(=O)c1cc(-c2ccc(Cl)cc2)nc(-n2ccnc2C2CC2)c1` [Example 5, N-tert-Butyl-2-(4-chlorophenyl)-6-(2-cyclopropyl-imidazol-1-yl)-pyridine-4-carboxamide] showed a Kb of 120 nM.

In the case of `CC(C)(C)NC(=O)c1cc(-c2ccc(F)cc2)nc(-n2ccnc2)c1` [Example 6, N-tert-Butyl-2-(4-fluorophenyl)-6-imidazol-1-yl-pyridine-4-carboxamide], the Kb stood at 1000 nM.

Turning to `Cc1nccn1-c1cc(C(=O)NC(C)(C)C)cc(-c2ccc(F)cc2)n1` [Example 7, N-tert-Butyl-2-(4-fluorophenyl)-6-(2-methyl-imidazol-1-yl)-pyridine-4-carboxamide], the Kb came out at 430 nM.

In the case of `CCc1nccn1-c1cc(C(=O)NC(C)(C)C)cc(-c2ccc(F)cc2)n1` [Example 8, N-tert-Butyl-2-(2-ethyl-imidazol-1-yl)-6-(4-fluorophenyl)-pyridine-4-carboxamide], the Kb amounted to 210 nM. In turn, `CC(C)(C)NC(=O)c1cc(-c2ccc(Cl)cc2)nc(-n2ccnc2)c1` [Example 9, N-tert-Butyl-2-(4-chlorophenyl)-6-imidazol-1-yl-pyridine-4-carboxamide] came in with a Kb of 600 nM.

Compound `Cc1nccn1-c1cc(C(=O)NC(C)(C)C)cc(-c2ccc(Cl)cc2)n1` [Example 10, N-tert-Butyl-2-(4-chlorophenyl)-6-(2-methyl-imidazol-1-yl)-pyridine-4-carboxamide] yielded a Kb of 300 nM. Against the preceding compound, the Kb is about 2-fold lower. Compound `CCc1nccn1-c1cc(C(=O)NC(C)(C)C)cc(-c2ccc(Cl)cc2)n1` [Example 11, N-tert-Butyl-2-(4-chlorophenyl)-6-(2-ethyl-imidazol-1-yl)-pyridine-4-carboxamide] came in with a Kb of 250 nM. For `CC(C)(C)NC(=O)c1cc(-c2ccc(Cl)cc2)nc(-n2ccnc2C(C)(C)C)c1` [Example 12, N-tert-Butyl-2-(2-tert-butyl-imidazol-1-yl)-6-(4-chlorophenyl)-pyridine-4-carboxamide] the value was 63 nM. The figure for `CC(C)(C)NC(=O)c1cc(-c2ccc(F)cc2)nc(-n2ccnc2C(C)(C)C)c1` [Example 13, N-tert-Butyl-2-(2-tert-butyl-imidazol-1-yl)-6-(4-fluorophenyl)-pyridine-4-carboxamide] is 58 nM; for `CC(C)c1nccn1-c1cc(C(=O)NC(C)(C)C2CC2)cc(-c2ccc(Cl)cc2)n1` [Example 15, 2-(4-Chlorophenyl)-N-(2-cyclopropylpropan-2-yl)-6-(2-propan-2-yl-imidazol-1-yl)-pyridine-4-carboxamide] it is 150 nM; for `CC(C)(NC(=O)c1cc(-c2ccc(Cl)cc2)nc(-n2ccnc2C2CC2)c1)C1CC1` [Example 16, 2-(4-Chlorophenyl)-6-(2-cyclopropyl-imidazol-1-yl)-N-(2-cyclopropyl-propan-2-yl)-pyridine-4-carboxamide] it is 300 nM.
